Source: EP0454367B1, “Growth hormone releasing factor analogs” (ELI LILLY AND COMPANY, priority 1990, dated 1991)
Starred links: 1 amine or outer side, 2 acyl side, 3 side chain; linkers in the order of their positions; H or OH if unused. Non-standard residues stand in square brackets, D forms with d. Residues, ends and D or L forms follow the SMILES beside them. *: point of attachment. X3 = O=C([C@H](Cc1ccc(O)cc1)N(CC(O)CO)[*:1])[*:2]; X2 = C[C@@H](C(=O)[*:2])N(CC(O)CO)[*:1]; X1 = O=C([C@@H]1CCCN1CC(O)CO)*; NMeA = CN[C@@H](C)C(=O)O

Molecular target: T1, Rat Pituitary Cells (Rattus norvegicus, UniProt Q02644)
T1 sequence (Q02644 23-464): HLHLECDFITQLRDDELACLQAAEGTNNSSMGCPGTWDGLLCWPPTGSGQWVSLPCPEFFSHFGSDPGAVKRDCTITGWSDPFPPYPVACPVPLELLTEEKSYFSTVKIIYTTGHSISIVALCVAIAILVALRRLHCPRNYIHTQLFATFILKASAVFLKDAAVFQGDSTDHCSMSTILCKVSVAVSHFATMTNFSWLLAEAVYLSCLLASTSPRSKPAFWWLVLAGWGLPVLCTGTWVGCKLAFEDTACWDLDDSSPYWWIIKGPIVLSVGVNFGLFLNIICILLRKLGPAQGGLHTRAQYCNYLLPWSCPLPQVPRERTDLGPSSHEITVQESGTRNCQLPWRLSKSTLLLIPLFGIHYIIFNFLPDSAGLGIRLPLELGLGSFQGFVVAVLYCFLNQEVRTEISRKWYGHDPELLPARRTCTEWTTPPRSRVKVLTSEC
Assay: GRF-analog mediated GH secretion from rat pituitary cells (method of Heiman et al.)
Assay type: cell-based
Conditions: EC50 [R^12,T^15,R^21,L^27]hGRF(1-29)NH2 / EC50 analog
Procedure: The polypeptide compounds of the invention may be assayed in numerous systems. One in vivo assay is carried out in sodium pentobarbital-anesthetized rats. Wehrenberg et al., Biochem. Biophys. Res. Commun. 109:382 (1982). Growth hormone release is measured in vitro with rat anterior pituitary cells. Heiman et al., Endocrinol. 116:410 (1985). Assays are also performed in wether lambs as described in the Examples provided hereinafter.
Various bGRF peptide analogs were synthesized by the solid phase synthesis method as described in U.S. Patent 4,617,149. The compounds were assayed in rat pituitary cells by the method of Heiman et al., Endocrinol. 116:410 (1985). The analogs are based on the sequence of the first 29 amino acids of human growth hormone releasing factor with the substitutions listed.

| SMILES | Relative Potency (% of std) |
| --- | --- |
| CC[C@H](C)[C@H](NC(=O)[C@H](C)NC(=O)[C@H](CC(=O)O)NC(=O)[C@H](C)NC(=O)[C@H](Cc1ccc(O)cc1)NC(=O)[C@@H]1CCCN1CC(O)CO)C(=O)N[C@@H](Cc1ccccc1)C(=O)N[C@H](C(=O)N[C@@H](CC(N)=O)C(=O)N[C@@H](CO)C(=O)N[C@@H](Cc1ccc(O)cc1)C(=O)N[C@@H](CCCNC(=N)N)C(=O)N[C@@H](CCCNC(=N)N)C(=O)N[C@H](C(=O)N[C@@H](CC(C)C)C(=O)N[C@H](C(=O)N[C@@H](CCC(N)=O)C(=O)N[C@@H](CC(C)C)C(=O)N[C@@H](CO)C(=O)N[C@@H](C)C(=O)N[C@@H](CCCNC(=N)N)C(=O)N[C@@H](CCCNC(=N)N)C(=O)N[C@@H](CC(C)C)C(=O)N[C@@H](CC(C)C)C(=O)N[C@@H](CCC(N)=O)C(=O)N[C@@H](CC(=O)O)C(=O)N[C@H](C(=O)N[C@@H](CC(C)C)C(=O)N[C@@H](CO)C(=O)N[C@@H](CCCNC(=N)N)C(N)=O)[C@@H](C)CC)[C@@H](C)O)C(C)C)[C@@H](C)O (some centres unmarked) [DHP[P^0,R^12,T^15,R^21,L^27]hGRF(1-29)NH2] (X1-YADAIFTNSYRRVLTQLSARRLLQDILSR-NH2) | .13 % of std |
| CC[C@H](C)[C@H](NC(=O)[C@H](C)NC(=O)[C@H](CC(=O)O)NC(=O)[C@H](C)NC(=O)[C@H](Cc1ccc(O)cc1)NC(=O)[C@H](C)NCC(O)CO)C(=O)N[C@@H](Cc1ccccc1)C(=O)N[C@H](C(=O)N[C@@H](CC(N)=O)C(=O)N[C@@H](CO)C(=O)N[C@@H](Cc1ccc(O)cc1)C(=O)N[C@@H](CCCNC(=N)N)C(=O)N[C@@H](CCCNC(=N)N)C(=O)N[C@H](C(=O)N[C@@H](CC(C)C)C(=O)N[C@H](C(=O)N[C@@H](CCC(N)=O)C(=O)N[C@@H](CC(C)C)C(=O)N[C@@H](CO)C(=O)N[C@@H](C)C(=O)N[C@@H](CCCNC(=N)N)C(=O)N[C@@H](CCCNC(=N)N)C(=O)N[C@@H](CC(C)C)C(=O)N[C@@H](CC(C)C)C(=O)N[C@@H](CCC(N)=O)C(=O)N[C@@H](CC(=O)O)C(=O)N[C@H](C(=O)N[C@@H](CC(C)C)C(=O)N[C@@H](CO)C(=O)N[C@@H](CCCNC(=N)N)C(N)=O)[C@@H](C)CC)[C@@H](C)O)C(C)C)[C@@H](C)O (some centres unmarked) [DHP[A^0,R^12,T^15,R^21,L^27]hGRF(1-29)NH2] (H-[X2]YADAIFTNSYRRVLTQLSARRLLQDILSR-NH2) | .335 % of std |
| CC[C@H](C)[C@H](NC(=O)[C@H](C)NC(=O)[C@H](CC(=O)O)NC(=O)[C@H](C)NC(=O)[C@H](Cc1ccc(O)cc1)NC(=O)[C@@H]1CCCN1C(=O)[C@@H]1CCCN1CC(O)CO)C(=O)N[C@@H](Cc1ccccc1)C(=O)N[C@H](C(=O)N[C@@H](CC(N)=O)C(=O)N[C@@H](CO)C(=O)N[C@@H](Cc1ccc(O)cc1)C(=O)N[C@@H](CCCNC(=N)N)C(=O)N[C@@H](CCCNC(=N)N)C(=O)N[C@H](C(=O)N[C@@H](CC(C)C)C(=O)N[C@H](C(=O)N[C@@H](CCC(N)=O)C(=O)N[C@@H](CC(C)C)C(=O)N[C@@H](CO)C(=O)N[C@@H](C)C(=O)N[C@@H](CCCNC(=N)N)C(=O)N[C@@H](CCCNC(=N)N)C(=O)N[C@@H](CC(C)C)C(=O)N[C@@H](CC(C)C)C(=O)N[C@@H](CCC(N)=O)C(=O)N[C@@H](CC(=O)O)C(=O)N[C@H](C(=O)N[C@@H](CC(C)C)C(=O)N[C@@H](CO)C(=O)N[C@@H](CCCNC(=N)N)C(N)=O)[C@@H](C)CC)[C@@H](C)O)C(C)C)[C@@H](C)O (some centres unmarked) [DHP[P^-1,P^0,R^12,T^15,R^21,L^27]hGRF(1-29)NH2] (X1-PYADAIFTNSYRRVLTQLSARRLLQDILSR-NH2) | .14 % of std |

Other lines, results leading:

| Relative Potency (% of std) | SMILES |
| --- | --- |
| .17 % of std | CC[C@H](C)[C@H](NC(=O)[C@H](C)NC(=O)[C@H](CC(=O)O)NC(=O)[C@H](C)NC(=O)[C@H](Cc1ccc(O)cc1)NC(=O)[C@H](C)NC)C(=O)N[C@@H](Cc1ccccc1)C(=O)N[C@H](C(=O)N[C@@H](CC(N)=O)C(=O)N[C@@H](CO)C(=O)N[C@@H](Cc1ccc(O)cc1)C(=O)N[C@@H](CCCNC(=N)N)C(=O)N[C@@H](CCCNC(=N)N)C(=O)N[C@H](C(=O)N[C@@H](CC(C)C)C(=O)N[C@H](C(=O)N[C@@H](CCC(N)=O)C(=O)N[C@@H](CC(C)C)C(=O)N[C@@H](CO)C(=O)N[C@@H](C)C(=O)N[C@@H](CCCNC(=N)N)C(=O)N[C@@H](CCCNC(=N)N)C(=O)N[C@@H](CC(C)C)C(=O)N[C@@H](CC(C)C)C(=O)N[C@@H](CCC(N)=O)C(=O)N[C@@H](CC(=O)O)C(=O)N[C@H](C(=O)N[C@@H](CC(C)C)C(=O)N[C@@H](CO)C(=O)N[C@@H](CCCNC(=N)N)C(N)=O)[C@@H](C)CC)[C@@H](C)O)C(C)C)[C@@H](C)O [[N-Me-A^0,R^12,T^15,R^21,L^27]hGRF(1-29)NH2] (H-[NMeA]YADAIFTNSYRRVLTQLSARRLLQDILSR-NH2) |
| .8 % of std | CC[C@H](C)[C@H](NC(=O)[C@H](C)NC(=O)[C@H](CC(=O)O)NC(=O)[C@H](C)NC(=O)[C@H](Cc1ccc(O)cc1)NCC(O)CO)C(=O)N[C@@H](Cc1ccccc1)C(=O)N[C@H](C(=O)N[C@@H](CC(N)=O)C(=O)N[C@@H](CO)C(=O)N[C@@H](Cc1ccc(O)cc1)C(=O)N[C@@H](CCCNC(=N)N)C(=O)N[C@@H](CCCNC(=N)N)C(=O)N[C@H](C(=O)N[C@@H](CC(C)C)C(=O)N[C@H](C(=O)N[C@@H](CCC(N)=O)C(=O)N[C@@H](CC(C)C)C(=O)N[C@@H](CO)C(=O)N[C@@H](C)C(=O)N[C@@H](CCCNC(=N)N)C(=O)N[C@@H](CCCNC(=N)N)C(=O)N[C@@H](CC(C)C)C(=O)N[C@@H](CC(C)C)C(=O)N[C@@H](CCC(N)=O)C(=O)N[C@@H](CC(=O)O)C(=O)N[C@H](C(=O)N[C@@H](CC(C)C)C(=O)N[C@@H](CO)C(=O)N[C@@H](CCCNC(=N)N)C(N)=O)[C@@H](C)CC)[C@@H](C)O)C(C)C)[C@@H](C)O (some centres unmarked) [DHP[R^12,T^15,R^21,L^27]hGRF(1-29)NH2] (H-[X3]ADAIFTNSYRRVLTQLSARRLLQDILSR-NH2) |
